Converted amounts (≈) assume the structure as drawn. The source made the active and inactive calls. No cut-off for these calls is given here.
Assays:
[1] = system: Bacillus subtilis; experiment: Antibacterial activity against Bacillus subtilis MTCC 121 assessed as zone of inhibition measured after 18 hrs by disc diffusion method; assay type: functional
[2] = system: Bacillus subtilis; experiment: Antibacterial activity against Bacillus subtilis MTCC 121 after 24 hrs by broth microdilution assay; assay type: functional; conditions: MTCC 121, 24 h
[3] = system: Staphylococcus aureus; experiment: Antibacterial activity against Staphylococcus aureus MTCC 96 assessed as zone of inhibition measured after 18 hrs by disc diffusion method; assay type: functional
[4] = system: Staphylococcus aureus; experiment: Antibacterial activity against Staphylococcus aureus MTCC 96 after 24 hrs by broth microdilution assay; assay type: functional; conditions: MTCC 96, 24 h
[5] = system: Enterobacter cloacae; experiment: Antibacterial activity against Enterobacter cloacae NAIMCC-B-02025 assessed as zone of inhibition measured after 18 hrs by disc diffusion method; assay type: functional
[6] = system: Enterobacter cloacae; experiment: Antibacterial activity against Enterobacter cloacae NAIMCC-B-02025 after 24 hrs by broth microdilution assay; assay type: functional; conditions: NAIMCC-B-02025, 24 h
[7] = system: Escherichia coli; experiment: Antibacterial activity against Escherichia coli MTCC 1652 assessed as zone of inhibition measured after 18 hrs by disc diffusion method; assay type: functional
[8] = system: BXPC-3; experiment: Cytotoxicity against human BxPC3 cells after 48 hrs by MTT assay; assay type: functional, cell-based; conditions: BXPC-3, 48 h
[9] = system: HeLa; experiment: Cytotoxicity against human HeLa cells after 48 hrs by MTT assay; assay type: functional, cell-based
[10] = system: LNCaP C4-2; experiment: Cytotoxicity against human C4-2 cells after 48 hrs by MTT assay; assay type: functional, cell-based; conditions: LNCaP C4-2, 48 h
[11] = system: PC-3; experiment: Cytotoxicity against human PC3 cells after 48 hrs by MTT assay; assay type: functional, cell-based; conditions: PC-3, 48 h
[12] = system: HEK-293T; experiment: Cytotoxicity against human HEK293T cells after 48 hrs by MTT assay; assay type: cell-based
[13] = system: MDA-MB-231; experiment: Cytotoxicity against human MDA-MB-231 cells after 48 hrs by MTT assay; assay type: functional, cell-based; conditions: MDA-MB-231, 48 h
[14] = system: NIH3T3; experiment: Cytotoxicity against mouse NIH/3T3 cells after 48 hrs by MTT assay; assay type: cell-based; conditions: NIH3T3, 48 h
[15] = system: Pseudomonas aeruginosa; experiment: Antibacterial activity against Pseudomonas aeruginosa MTCC 424 assessed as zone of inhibition measured after 18 hrs by disc diffusion method; assay type: functional
[16] = system: MDA-MB-231; experiment: Induction of apoptosis in human MDA-MB-231 cells assessed as morphological changes after 24 hrs by acridine orange/ethidium bromide-dual staining based fluorescence microscopic method; assay type: functional, cell-based

Row | MIC [2] | MIC [4] | MIC [6] | SMILES | inhibition zone (IZ) [1] | inhibition zone (IZ) [3] | inhibition zone (IZ) [5] | inhibition zone (IZ) [7] | IC50 [8] | IC50 [9] | IC50 [10] | IC50 [11] | IC50 [12] | IC50 [13] | IC50 [14] | inhibition zone (IZ) [15] | Activity [16]
1 | 870 µM (≈ 297 µg/mL) | 715 µM (≈ 244 µg/mL) | 880 µM (≈ 300 µg/mL) | CN(C)c1ccc(/C=C/C(=O)c2nccc3c2[nH]c2ccccc23)cc1 | 8 mm | 11 mm | 8 mm | 8 mm | – | – | – | – | – | – | – | – | –
2 | – | – | – | CCCC[n+]1ccc2c([nH]c3ccccc32)c1C(=O)/C=C/c1ccc(OC)cc1.[Br-] | – | 9 mm | – | – | 50.8 µM | 45 µM | 38.8 µM | 65 µM | 35.2 µM | 40.9 µM | 74.6 µM | – | –
3 | – | – | 590 µM | C#CC[n+]1ccc2c([nH]c3ccccc32)c1C(=O)/C=C/c1cc(OC)c(OC)c(OC)c1.[Br-] | – | 9 mm | 13 mm | – | 72 µM | 70.1 µM | 65.5 µM | 61 µM | 55.1 µM | 59.6 µM | 88 µM | 9 mm | –
4 | – | – | – | O=C(/C=C/c1ccc2c(c1)OCO2)c1c2[nH]c3ccccc3c2cc[n+]1Cc1ccccc1.[Br-] | 6 mm | 7 mm | 8 mm | – | 55.3 µM | 45.2 µM | 42.1 µM | 79 µM | 55.1 µM | 48.2 µM | 82.2 µM | – | –
5 | – | 710 µM (≈ 260 µg/mL) | 726 µM (≈ 266 µg/mL) | O=C(/C=C/c1ccc(C(F)(F)F)cc1)c1nccc2c1[nH]c1ccccc12 | – | 11 mm | 11 mm | 10 mm | – | – | – | – | – | – | – | – | –
6 | – | – | – | C#CC[n+]1ccc2c([nH]c3ccccc32)c1C(=O)/C=C/c1ccc2c(c1)OCO2.[Br-] | 7 mm | 9 mm | 6 mm | – | 30.1 µM | 25.3 µM | 24.4 µM | 29.6 µM | 19.1 µM | 21.2 µM | 72.1 µM | 7 mm | –
7 | 838 µM (≈ 250 µg/mL) | – | – | O=C(/C=C/c1ccccc1)c1nccc2c1[nH]c1ccccc12 | 9 mm | – | – | – | 72 µM | 82.4 µM | 80.2 µM | 93 µM | 65.6 µM | 71.1 µM | > 100 µM | – | –
8 | – | – | – | O=C(/C=C/c1ccc2c(c1)OCO2)c1nccc2c1[nH]c1ccccc12 | – | – | – | – | > 100 µM | > 100 µM | > 100 µM | > 100 µM | > 100 µM | > 100 µM | > 100 µM | – | –
9 | – | 812 µM | 806 µM | CCCC[n+]1ccc2c([nH]c3ccccc32)c1C(=O)/C=C/c1cc(OC)c(OC)c(OC)c1.[Br-] | – | 10 mm | 10 mm | 8 mm | 25.1 µM | 35.6 µM | 39.6 µM | 40.1 µM | 34.4 µM | 32 µM | 68.6 µM | 12 mm | –
10 | 720 µM (≈ 225 µg/mL) | 820 µM (≈ 256 µg/mL) | 828 µM (≈ 259 µg/mL) | Cc1ccc(/C=C/C(=O)c2nccc3c2[nH]c2ccccc23)cc1 | 12 mm | 10 mm | 10 mm | – | > 100 µM | > 100 µM | > 100 µM | > 100 µM | > 100 µM | > 100 µM | > 100 µM | – | –
11 | – | > 900 µM | 834 µM (≈ 324 µg/mL) | COc1cc(/C=C/C(=O)c2nccc3c2[nH]c2ccccc23)cc(OC)c1OC | – | 7 mm | 10 mm | – | 70.8 µM | 75.2 µM | 71.6 µM | > 100 µM | 82.1 µM | 71.5 µM | > 100 µM | – | –
12 | – | – | – | CCCC[n+]1ccc2c([nH]c3ccccc32)c1C(=O)/C=C/c1ccc2c(c1)OCO2.[Br-] | 7 mm | 9 mm | – | – | > 100 µM | > 100 µM | > 100 µM | > 100 µM | > 100 µM | > 100 µM | > 100 µM | – | –
13 | 875 µM | 440 µM | 874 µM | COc1ccc(/C=C/C(=O)c2c3[nH]c4ccccc4c3cc[n+]2Cc2ccccc2)cc1.[Br-] | 8 mm | 15 mm | 8 mm | 8 mm | 50.2 µM | 60.1 µM | 65.5 µM | 88.3 µM | 41.4 µM | 52.2 µM | 85.3 µM | – | –
14 | – | – | 726 µM | COc1cc(/C=C/C(=O)c2c3[nH]c4ccccc4c3cc[n+]2Cc2ccccc2)cc(OC)c1OC.[Br-] | 7 mm | 9 mm | 12 mm | – | 20 µM | 22.1 µM | 16.1 µM | 22 µM | 17.2 µM | 16 µM | 55.2 µM | – | Active
15 | 885 µM (≈ 291 µg/mL) | 733 µM (≈ 241 µg/mL) | 846 µM (≈ 278 µg/mL) | COc1ccc(/C=C/C(=O)c2nccc3c2[nH]c2ccccc23)cc1 | 8 mm | 12 mm | 9 mm | – | > 100 µM | > 100 µM | > 100 µM | > 100 µM | > 100 µM | > 100 µM | > 100 µM | 8 mm | –
16 | – | – | – | COc1cccc2c1C(=O)c1c(O)c3c(c(O)c1C2=O)C[C@@](O)(C(=O)CO)C[C@@H]3O[C@H]1C[C@H](N)[C@H](O)[C@H](C)O1 [DOXORUBICIN] | – | – | – | – | 13.6 µM | – | 3.2 µM | 10.2 µM | 3.59 µM | 7.85 µM | 21.3 µM | – | Active
17 | – | – | – | C#CC[n+]1ccc2c([nH]c3ccccc32)c1C(=O)/C=C/c1ccc(OC)cc1.[Br-] | – | 9 mm | 6 mm | – | > 100 µM | > 100 µM | > 100 µM | > 100 µM | > 100 µM | > 100 µM | > 100 µM | 7 mm | –

Row | SMILES | MIC [2] | MIC [4] | MIC [6] | inhibition zone (IZ) [1] | inhibition zone (IZ) [3] | inhibition zone (IZ) [5] | inhibition zone (IZ) [7] | IC50 [8] | IC50 [9] | IC50 [10] | IC50 [11] | IC50 [12] | IC50 [13] | IC50 [14] | inhibition zone (IZ) [15] | Activity [16]
18 | O=C(N[C@H](CO)[C@H](O)c1ccc([N+](=O)[O-])cc1)C(Cl)Cl [CHLORAMPHENICOL] | 32 µM (≈ 10.3 µg/mL) | 17 µM (≈ 5.49 µg/mL) | 24 µM (≈ 7.76 µg/mL) | 22 mm | 22 mm | 20 mm | 22 mm | – | – | – | – | – | – | – | 21 mm | –

Reference: ChEMBL document CHEMBL4219171, “Synthesis and investigations into the anticancer and antibacterial activity studies of β-carboline chalcones and their bromide salts” (Bioorg Med Chem Lett, 2018)
